Measurements published in ChEMBL document CHEMBL1201862, “PubChem BioAssay data set” (2004).
The source made the active and inactive calls.

How the values were obtained:
[1] = Luminescence Cell-Based Dose Response HTS to Identify Activators of Luciferase Translation or Activity in H4 […] Cells. [Related pubchem assays: 1829 (Project Summary), 1814 (Primary HTS)]; format: functional
[2] = tested on: H4; assay: Luminescence Cell-Based Dose Response HTS to Identify Activators of 5'UTR Stem-Loop Driven Prion Protein mRNA Translation in H4 Neuroglioblastoma Cells. [Related pubchem assays: 1829 (Project Summary), 1814 (Primary HTS)]; format: functional; details: Homo sapiens
[3] = tested on: P388; assay: cells; format: functional; details: Mus musculus
[4] = tested on: P388/ADR; assay: cells; format: functional; details: Mus musculus
[5] = tested on: SN12K1; assay: cells; format: functional; details: Homo sapiens
[6] = HEp-2 cell cytotoxicity, dose response, cytotoxicity control for RSV inhibitor project, HTS (AID 2410); format: functional; details: human respiratory syncytial virus
[7] = target: T1, High affinity choline transporter 1 (Homo sapiens, UniProt Q9GZV3); assay: CHT inhibitors, dose response, cell-based, 5-point CRC, membrane potential dye (AID 504840); format: functional
T1 sequence (Q9GZV3 whole entry): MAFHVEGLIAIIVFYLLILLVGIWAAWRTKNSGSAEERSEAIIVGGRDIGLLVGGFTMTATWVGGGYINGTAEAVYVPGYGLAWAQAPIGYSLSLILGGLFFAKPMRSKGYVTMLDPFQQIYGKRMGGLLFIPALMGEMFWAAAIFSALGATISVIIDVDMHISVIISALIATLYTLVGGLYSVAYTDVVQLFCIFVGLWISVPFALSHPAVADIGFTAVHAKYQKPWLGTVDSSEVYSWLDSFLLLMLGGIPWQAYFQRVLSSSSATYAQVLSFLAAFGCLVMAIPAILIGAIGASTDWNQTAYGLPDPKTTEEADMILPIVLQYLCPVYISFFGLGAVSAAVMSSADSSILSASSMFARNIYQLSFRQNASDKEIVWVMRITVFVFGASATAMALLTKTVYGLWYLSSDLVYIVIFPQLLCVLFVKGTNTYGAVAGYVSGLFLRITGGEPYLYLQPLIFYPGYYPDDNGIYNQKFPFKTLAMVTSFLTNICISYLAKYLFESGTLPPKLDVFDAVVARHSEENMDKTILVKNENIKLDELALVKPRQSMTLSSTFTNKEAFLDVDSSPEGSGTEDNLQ

[8] = Vero E6 cell cytotoxicity, dose response, cytotoxicity control for non-replicating M. tuberculosis project, secondary assay (AID 492998); format: functional, VeroE6; details: Vero C1008
[9] = THP-1 cell cytotoxicity, dose response, cytotoxicity control for non-replicating M. tuberculosis project (AID 489025); format: functional
[10] = C. albicans growth with fluconazole, confirmation, fluorescence, retest (AID 2467); format: functional, cell-based
[11] = microbe, parasite or virus in culture; format: functional; details: Mycobacterium tuberculosis
[12] = NIH-3T3 fibroblast cytotoxicity, dose response, cytotoxicity control, cell-based, fluorescence, Alamar Blue, secondary assay (AID 2327); format: functional;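 also: NIH-3T3 mouse fibroblasts cultured with fluconazole at 8 µg/mL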
[13] = cells; format: functional
[14] = target: Heat shock protein HSP 90-alpha (Homo sapiens, UniProt P07900); format: functional, organism-based
[15] = target: Glyceraldehyde-3-phosphate dehydrogenase (Homo sapiens, UniProt P04406)
[16] = cytotoxicity in HEK-293T cells, dose response, cytotoxicity control for TCR NF-kB inhibitor project, luminescence, T-cell screen hits (AID 489026); format: functional, cell-based;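 also: cells exposed to compound about 14 hours before the viability readout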
[17] = tested on: H9c2; assay: cells; format: functional, cell-based; details: Rattus norvegicus, H9c2, Myocardium;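 also: confirmatory concentration-response retest of ultra-high-throughput screening hits for modulation of myocardial damage; cell death induced by hydrogen peroxide oxidative stress; compound pretreatment for 60 min then peroxide exposure for 2 h; potency is for protecting the cells against peroxide damage rather than for killing them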
[18] = A549 cell cytotoxicity, dose response, cytotoxicity control, plate reader, cherry-pick, antagonist series (AID 743412); format: functional, cell-based
[19] = HEK293 cell cytotoxicity, dose response, cytotoxicity control, plate reader, cherry-picked samples (AID 743446); format: functional, cell-based
[20] = target: Large T antigen (Simian virus 40, UniProt P03070); format: functional, Betapolyomavirus macacae;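 also: Confirmatory-stage PubChem screen for compounds that inhibit SV40 T antigen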
[21] = cells; format: functional, cell-based
[22] = cells; format: functional, cell-based; remark: listed apart in the source
[23] = target: T2, RNA-binding protein pos-1 (Caenorhabditis elegans, UniProt G5EF15); assay: inhibitors of POS-1/mex-3 RNA binding, dose response, biochemical, fluorescence polarization (AID 1964);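 also: purified POS-1 fused to maltose binding protein made in E. coli; potency of compounds blocking POS-1 binding to fluorescent RNA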
T2 sequence (G5EF15 whole entry): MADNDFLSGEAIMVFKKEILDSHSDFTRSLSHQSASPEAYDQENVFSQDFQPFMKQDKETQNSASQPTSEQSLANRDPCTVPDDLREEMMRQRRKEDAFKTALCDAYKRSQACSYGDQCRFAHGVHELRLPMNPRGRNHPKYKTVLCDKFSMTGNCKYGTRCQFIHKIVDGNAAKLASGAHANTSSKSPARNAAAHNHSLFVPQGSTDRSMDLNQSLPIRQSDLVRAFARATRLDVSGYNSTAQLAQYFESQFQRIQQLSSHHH

[24] = target: T3, Zinc finger protein mex-5 (Caenorhabditis elegans, UniProt Q9XUB2); assay: MEX-5/TCR-2 RNA interaction inhibitors, dose response, biochemical, C. elegans, fluorescence polarization (AID 1960)
T3 sequence (Q9XUB2 whole entry): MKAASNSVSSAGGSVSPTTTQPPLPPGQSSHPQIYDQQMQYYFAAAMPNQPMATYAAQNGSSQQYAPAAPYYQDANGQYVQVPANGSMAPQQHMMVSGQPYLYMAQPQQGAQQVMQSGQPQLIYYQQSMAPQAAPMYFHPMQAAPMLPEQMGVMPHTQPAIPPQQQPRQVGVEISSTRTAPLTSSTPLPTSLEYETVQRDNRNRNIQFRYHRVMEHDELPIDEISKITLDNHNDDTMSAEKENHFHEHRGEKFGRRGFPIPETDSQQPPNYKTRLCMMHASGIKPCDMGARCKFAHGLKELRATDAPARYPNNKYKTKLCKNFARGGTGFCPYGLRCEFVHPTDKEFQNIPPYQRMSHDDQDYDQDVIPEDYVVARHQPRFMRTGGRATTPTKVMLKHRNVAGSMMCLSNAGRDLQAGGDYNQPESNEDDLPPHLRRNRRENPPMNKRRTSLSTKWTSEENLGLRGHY

[25] = Luminescence Cell-Based Dose Retest to Confirm Inhibitors of Cancer Stem Cells. [Related pubchem assays (depositor defined):AID2717, AID2721]; format: functional; details: Homo sapiens

Sequence of Glyceraldehyde-3-phosphate dehydrogenase (P04406 whole entry): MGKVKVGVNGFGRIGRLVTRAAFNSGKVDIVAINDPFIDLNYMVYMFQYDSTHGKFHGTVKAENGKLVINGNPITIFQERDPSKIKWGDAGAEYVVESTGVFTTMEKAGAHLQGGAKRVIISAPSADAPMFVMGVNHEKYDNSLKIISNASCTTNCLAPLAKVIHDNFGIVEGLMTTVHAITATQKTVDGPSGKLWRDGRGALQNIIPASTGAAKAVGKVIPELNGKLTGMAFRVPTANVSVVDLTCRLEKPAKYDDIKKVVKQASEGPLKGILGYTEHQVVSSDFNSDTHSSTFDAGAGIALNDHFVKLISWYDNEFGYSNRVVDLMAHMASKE
Sequence of Large T antigen (P03070 whole entry): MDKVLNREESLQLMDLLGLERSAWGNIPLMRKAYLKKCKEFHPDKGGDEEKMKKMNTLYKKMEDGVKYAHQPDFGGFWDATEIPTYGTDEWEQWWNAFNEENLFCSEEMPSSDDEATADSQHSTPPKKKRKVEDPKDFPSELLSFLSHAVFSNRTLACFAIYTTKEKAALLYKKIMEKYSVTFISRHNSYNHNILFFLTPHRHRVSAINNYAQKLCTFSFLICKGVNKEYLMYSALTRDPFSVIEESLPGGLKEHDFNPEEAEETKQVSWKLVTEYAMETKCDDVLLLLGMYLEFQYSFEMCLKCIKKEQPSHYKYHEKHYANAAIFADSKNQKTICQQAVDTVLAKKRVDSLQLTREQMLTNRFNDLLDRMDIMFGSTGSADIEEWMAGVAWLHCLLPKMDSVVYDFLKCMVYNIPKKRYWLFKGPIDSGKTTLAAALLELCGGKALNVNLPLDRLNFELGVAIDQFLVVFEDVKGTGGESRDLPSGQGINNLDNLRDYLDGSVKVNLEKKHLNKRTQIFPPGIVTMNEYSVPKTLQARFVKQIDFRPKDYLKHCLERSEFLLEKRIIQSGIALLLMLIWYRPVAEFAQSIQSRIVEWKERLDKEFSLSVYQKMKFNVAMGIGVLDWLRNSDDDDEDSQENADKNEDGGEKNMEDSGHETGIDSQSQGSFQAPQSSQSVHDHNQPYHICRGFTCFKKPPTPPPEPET

Structure (SMILES): CCN1CCN(Cc2ccccc2NC(=O)Nc2ccc(C)cc2)CC1
- EC50 [1]: > 120 µM (not active)
- EC50 [2]: 7.09 µM (active)

Structure (SMILES): CN(C)CCNC(=O)c1cccc2[nH]c(-c3ccccn3)nc12
- GI50 [3]: 14.5 µM (inactive)
- GI50 [4]: 21.3 µM (inactive)
- GI50 [5]: 25.2 µM (inactive)

Structure (SMILES): O=C(Nc1ccccc1Br)C1CCCN1S(=O)(=O)c1cccc2nsnc12 (stereo not given)
- CC50 [6]: 33.1 µM (active)
- IC50 [7]: 13.8 µM (active)

Structure (SMILES): Cc1noc2ncnc(Sc3ccc(Cl)cc3)c12
- CC50 [8]: > 20 µM (active)
- CC50 [9]: 21.3 µM (active)
- EC50 [10]: > 38 µM (not active)
- CC50 [11]: 27.1 µM (active)
- EC50 [12]: > 160 µM (inconclusive)
- IC50 [13]: 8.82 µM (active)

Structure (SMILES): O=C(Nc1ccccc1)Oc1cccc2cccnc12
- AC50 [14]: 3.44 µM (active)

Structure (SMILES): COC(=O)N/N=C/c1ccc([N+](=O)[O-])s1
- CC50 [8]: > 20 µM (active)
- IC50 [13]: 30.5 µM (active)

Structure (SMILES): O=C1C(Cl)=C(N2CCN(Cc3ccccc3)CC2)C(=O)N1c1cccc(C(F)(F)F)c1
- IC50 [15]: > 50 µM (inconclusive)

Structure (SMILES): CCC(C)C1NC(=O)CNC(=O)C2Cc3c([nH]c4cc(O)ccc34)[S+]([O-])CC(NC(=O)CNC1=O)C(=O)NC(CC(=O)O)C(=O)N1CC(O)CC1C(=O)NC(C(C)C(O)CO)C(=O)N2 (stereo not given)
- GI50 [3]: 2.47 µM (inactive)
- GI50 [4]: 2.77 µM (inactive)
- GI50 [5]: 2.32 µM (inactive)

Structure (SMILES): CCOc1ccccc1NC(=O)CN(c1ccc(OC)cc1)S(=O)(=O)c1c(C)noc1C
- IC50 [16]: > 80 µM (inactive)

Structure (SMILES): O=C(/C=C/c1ccccc1Cl)c1ccc(O)cc1
- AC50 [14]: 4.46 µM (active)

Structure (SMILES): N=C(Cc1ccc(Cl)cc1Cl)NOC(=O)c1ccc(Br)o1
- AC50 [14]: 3.11 µM (active)

Structure (SMILES): COc1ccc(OC)c(C2CC(=O)c3c([nH]c(C(=O)OC(C)C)c3C)C2)c1 (stereo not given)
- IC50 [16]: > 80 µM (inactive)

Structure (SMILES): COc1ccc(OC)c(/C=C2\SC(=S)N(NS(=O)(=O)c3ccccc3)C2=O)c1
- IC50 [7]: 8.71 µM (active)

Structure (SMILES): COc1ccc(CC(N)=O)cc1OC
- GI50 [3]: > 1250 µM (inactive)
- GI50 [4]: > 1250 µM (inactive)
- GI50 [5]: > 1250 µM (inactive)

Structure (SMILES): COc1ccnc(Oc2ccccc2)c1C(=O)N=CNOCc1ccc(F)cc1Cl
- IC50 [17]: > 79 µM (inactive)

Structure (SMILES): Cn1nnnc1Sc1ncnc2scc(-c3ccccc3C(F)(F)F)c12
- AC50 [18]: 20.7 µM (active)
- CC50 [6]: 7.66 µM (active)
- AC50 [19]: 27.9 µM (active)

Structure (SMILES): COc1cc([C@@H]2c3cc4c(cc3[C@@H](OC3OC5COC(C)OC5C(O)C3O)[C@H]3COC(=O)[C@H]23)OCO4)cc(OC)c1O (stereo not given in full)
- GI50 [3]: 0.275 µM (active)
- GI50 [4]: 58.6 µM (inactive)
- GI50 [5]: 1.17 µM (inactive)

Structure (SMILES): COc1cc(/C=N/NC(=O)CCn2nc(C)cc2C)ccc1O
- IC50 [20]: 15.6 µM (active)

Structure (SMILES): Cn1c(=O)[nH]c(=O)c2c1nc(N(CCO)Cc1ccccc1)n2CCCc1ccccc1
- IC50 [17]: 13.8 µM (active)

Structure (SMILES): CN(CCO)/N=N/c1n[nH]cc1C(N)=O
- GI50 [3]: > 100 µM (inactive)
- GI50 [4]: > 100 µM (inactive)
- GI50 [5]: > 100 µM (inactive)

Structure (SMILES): Cc1cc(C)c2nc(-n3nc(C)cc3N)cc(C)c2c1
- EC50 [1]: 32.5 µM (active)
- EC50 [2]: 1.71 µM (active)

Structure (SMILES): NC(=O)CSc1nnc2ccc(-c3ccc(Cl)cc3)nn12
- EC50 [21]: > 350 µM (not active)
- EC50 [22]: > 350 µM (not active)

Structure (SMILES): O=C(N/N=C/c1c[nH]c2ccccc12)c1ccc(O)c(O)c1
- IC50 [20]: 9.13 µM (active)

Structure (SMILES): C=CC[C@@H](CC(=O)NCCO)C(=O)NC[C@H](OC(=O)[C@@H](CC=C)Cc1ccc(F)cc1)c1ccccc1
- IC50 [17]: > 79 µM (inactive)

Structure (SMILES): Cc1sc2nc(CSCC(=O)N(C)CC(=O)Nc3ccc(F)cc3)nc(O)c2c1C
- IC50 [17]: 7.7 µM (active)

Structure (SMILES): CCOc1cc(C2C(C#N)=C(N)OC3=C2C(=O)CC(C)(C)C3)cc([N+](=O)[O-])c1O (stereo not given)
- EC50 [23]: > 300 µM (not active)
- EC50 [24]: > 300 µM (not active)

Structure (SMILES): OCC#CCNCl
- GI50 [3]: 16.1 µM (inactive)
- GI50 [4]: > 46 µM (inactive)
- GI50 [5]: > 100 µM (inactive)

Structure (SMILES): CCCCCN1C=CC(=C2C(=O)c3ccccc3C2=O)C=C1
- IC50 [16]: > 80 µM (inactive)

Structure (SMILES): Nc1nc(-c2ccccc2)cn1/N=C/c1cccc([N+](=O)[O-])c1
- IC50 [15]: > 100 µM (not active)

Structure (SMILES): O=C(NC1CCCCC1)C(c1ccc2ncccc2c1)N(Cc1ccc2c(c1)OCO2)C(=O)c1ccc2c(c1)OCCO2 (stereo not given)
- IC50 [7]: 15.1 µM (active)

Structure (SMILES): COc1ccccc1C1=NOC(COc2ccc3c(C)cc(=O)oc3c2)C1 (stereo not given)
- AC50 [25]: 0.224 µM (active)
- IC50 [16]: > 80 µM (inactive)

Structure (SMILES): COc1ccc(C2=CC3=C(Br)C(=O)C(C)(OC(=O)C4CCCC4)C(=O)C3=CO2)cc1 (stereo not given)
- AC50 [14]: 1.68 µM (active)
- EC50 [23]: 43.7 µM (active)
- EC50 [24]: > 300 µM (not active)

Structure (SMILES): Cn1cc(CN2CCC(C(=O)Nc3cccc(-c4cscn4)c3)CC2)cn1
- EC50 [21]: > 350 µM (not active)
- EC50 [22]: > 350 µM (not active)

Structure (SMILES): O=[N+]([O-])c1ccc(C2=Nc3cc(Cl)ccc3OC2)cc1
- EC50 [23]: 90.7 µM (active)
- EC50 [24]: > 300 µM (inconclusive)

Structure (SMILES): O=[N+]([O-])c1cccc2c1[nH]c1c(-c3ccccc3)nccc12
- GI50 [3]: 2.52 µM (inactive)
- GI50 [4]: 2.52 µM (inactive)
- GI50 [5]: 1.72 µM (inactive)

Structure (SMILES): Cc1cccc(NC(=O)COc2cccc3c2CCN(C)C3=O)c1C
- EC50 [21]: > 350 µM (not active)
- EC50 [22]: > 350 µM (not active)

Structure (SMILES): C[C@H]1CN(C2=C(Cl)C(=O)N(c3ccc(Cl)nc3)C2=O)CCN1
- IC50 [15]: > 50 µM (inconclusive)
